Counter-ions that a name gives are not always drawn.
How the values were obtained:
[1] = system: Neonatal cardiac fibroblasts; test: cardiac marker gene expression by qPCR in neonatal cardiac fibroblasts treated with HMT inhibitors, no microRNA; format: cell-based, mouse; conditions: 1 μM, after 3 days, absence of microRNA combination (FIG. 9A)
Protocol: Neonatal cardiac fibroblasts were treated with 1 μM of the H3K9me3 inhibitor BIX-01294 (BIX) or 1 μM of the H3K27me3/H4K20me3 inhibitor 3-Deazaneplanocin A hydrochloride (DZNep) from day 1 to day 3 in the absence (A) or presence of microRNA combination (MC) (B). Gene expression of cardiac markers was assessed by qPCR. Data are shown as Avg+Sdv. *P<0.05.
Inhibition of histone methyltransferase activity by small molecule compounds was investigated. Neonatal cardiac fibroblasts were treated with 1 μM of the H3K9 methylation inhibitor BIX-01294 or 1 μM of the H3K27/H4K20 methylation inhibitor 3-Deazaneplanocin A hydrochloride (DZNep). After 3 days, RNA was harvested using standard protocols known in the art, and cardiac gene expression was assessed by qPCR. The cardiac genes tested were Tbx5, Mef2C, Gata4, and Nkx2.5. […] Alternatively, inhibition of H3K9 causes upregulation of other cardiac markers, such asTbx5, and therefore inhibition of H3K9 methylation also promotes the expression of at least one cardiac marker.

[2] = system: lysine 9 of histone H3 (H3K9); conditions: has been shown; cited from earlier work
[3] = molecular target: T1, G9a-like protein (Homo sapiens, UniProt Q9H9B1); conditions: reported activity; cited from earlier work
T1 sequence (Q9H9B1 1-1298): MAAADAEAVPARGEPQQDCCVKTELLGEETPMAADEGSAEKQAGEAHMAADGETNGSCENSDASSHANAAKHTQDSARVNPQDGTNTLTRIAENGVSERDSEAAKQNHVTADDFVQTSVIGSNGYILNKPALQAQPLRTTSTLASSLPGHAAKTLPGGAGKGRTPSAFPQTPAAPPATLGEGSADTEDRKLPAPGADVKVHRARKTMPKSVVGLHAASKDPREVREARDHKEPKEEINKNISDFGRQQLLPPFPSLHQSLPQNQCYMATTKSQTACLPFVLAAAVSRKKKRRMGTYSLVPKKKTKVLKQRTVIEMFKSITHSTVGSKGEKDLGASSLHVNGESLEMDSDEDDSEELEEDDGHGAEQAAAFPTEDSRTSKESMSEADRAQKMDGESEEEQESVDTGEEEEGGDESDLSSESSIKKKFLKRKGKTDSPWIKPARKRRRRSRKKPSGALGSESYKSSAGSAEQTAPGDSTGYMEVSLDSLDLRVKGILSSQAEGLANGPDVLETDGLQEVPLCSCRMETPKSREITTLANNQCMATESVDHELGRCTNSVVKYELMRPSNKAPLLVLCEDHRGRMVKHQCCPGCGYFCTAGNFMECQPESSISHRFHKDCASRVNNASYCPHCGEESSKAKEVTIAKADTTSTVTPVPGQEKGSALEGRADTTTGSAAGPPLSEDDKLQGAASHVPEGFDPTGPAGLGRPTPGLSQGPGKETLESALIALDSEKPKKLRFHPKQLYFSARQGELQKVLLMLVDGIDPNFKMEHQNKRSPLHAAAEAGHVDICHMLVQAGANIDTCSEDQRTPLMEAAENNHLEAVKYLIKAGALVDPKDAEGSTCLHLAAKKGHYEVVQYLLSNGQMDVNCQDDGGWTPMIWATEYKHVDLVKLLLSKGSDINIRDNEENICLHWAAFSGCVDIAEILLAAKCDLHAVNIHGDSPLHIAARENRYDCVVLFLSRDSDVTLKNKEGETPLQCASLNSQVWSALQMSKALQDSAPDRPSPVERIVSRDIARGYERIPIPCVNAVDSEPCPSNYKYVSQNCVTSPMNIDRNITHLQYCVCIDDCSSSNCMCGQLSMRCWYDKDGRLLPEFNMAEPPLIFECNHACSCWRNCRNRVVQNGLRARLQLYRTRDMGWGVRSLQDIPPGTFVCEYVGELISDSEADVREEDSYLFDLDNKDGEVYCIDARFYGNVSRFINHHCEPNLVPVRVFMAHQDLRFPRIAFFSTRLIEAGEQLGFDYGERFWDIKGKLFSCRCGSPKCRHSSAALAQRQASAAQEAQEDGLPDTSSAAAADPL

[4] = molecular target: T2, G9a histone lysine methyltransferase (Homo sapiens, UniProt Q96KQ7); conditions: reported activity; cited from earlier work
T2 sequence (Q96KQ7 1-1210): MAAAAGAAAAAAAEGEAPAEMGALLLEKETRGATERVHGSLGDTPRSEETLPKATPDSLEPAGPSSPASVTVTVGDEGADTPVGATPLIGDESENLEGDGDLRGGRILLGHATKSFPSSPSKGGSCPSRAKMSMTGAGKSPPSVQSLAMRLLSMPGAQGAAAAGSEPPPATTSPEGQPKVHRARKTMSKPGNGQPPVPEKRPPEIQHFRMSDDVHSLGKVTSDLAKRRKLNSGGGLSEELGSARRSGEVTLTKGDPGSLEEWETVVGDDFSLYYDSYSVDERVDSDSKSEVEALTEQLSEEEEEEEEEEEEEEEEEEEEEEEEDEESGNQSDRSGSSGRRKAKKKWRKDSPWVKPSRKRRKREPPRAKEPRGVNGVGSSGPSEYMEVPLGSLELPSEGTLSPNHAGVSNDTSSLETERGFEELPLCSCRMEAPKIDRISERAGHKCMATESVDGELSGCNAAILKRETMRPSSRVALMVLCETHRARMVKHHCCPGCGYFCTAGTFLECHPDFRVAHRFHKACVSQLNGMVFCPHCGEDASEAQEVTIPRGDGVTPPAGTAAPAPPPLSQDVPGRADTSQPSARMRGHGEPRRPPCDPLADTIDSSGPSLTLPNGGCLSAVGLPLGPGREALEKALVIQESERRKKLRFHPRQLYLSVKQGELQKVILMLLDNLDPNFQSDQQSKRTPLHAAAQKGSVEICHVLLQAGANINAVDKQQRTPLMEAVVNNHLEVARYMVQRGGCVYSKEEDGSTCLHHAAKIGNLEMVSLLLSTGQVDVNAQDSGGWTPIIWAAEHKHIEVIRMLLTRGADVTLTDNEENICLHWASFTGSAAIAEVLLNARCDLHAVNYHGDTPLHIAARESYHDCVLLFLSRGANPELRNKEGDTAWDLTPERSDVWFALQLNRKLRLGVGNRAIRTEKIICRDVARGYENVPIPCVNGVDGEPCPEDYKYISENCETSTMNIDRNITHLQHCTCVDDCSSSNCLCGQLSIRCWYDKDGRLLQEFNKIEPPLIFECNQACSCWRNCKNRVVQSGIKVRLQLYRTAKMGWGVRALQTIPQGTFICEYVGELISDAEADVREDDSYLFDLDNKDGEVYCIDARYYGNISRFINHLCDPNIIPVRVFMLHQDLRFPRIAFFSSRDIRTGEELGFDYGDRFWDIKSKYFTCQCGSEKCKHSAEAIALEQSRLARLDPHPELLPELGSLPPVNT

[5] = system: Human fibroblasts (BJ cells); test: cardiac marker gene expression by qPCR in miRNA-transfected human fibroblasts with JAK inhibitor; format: cell-based; conditions: 1 μM, compared to cells transfected with the miRNAs alone
Protocol: Gene expression was determined by qPCR. (A) Isl-1 gene expression. (B) […] gene expression. (C) Tbx5 gene expression. (D) Mef2c gene expression. (E) Gata-4 gene expression.
RNA was harvested and prepared according to standard protocols for qPCR gene expression analysis. The expression of cardiac marker genes, such as Isl1, Mesp1, Tbx5, Mef2c, Gata4, and Hand2 was assessed.

Structure (SMILES)	Mef2C cardiac marker gene expression [1]	Nkx2.5 cardiac marker gene expression [1]	Tbx5 cardiac marker gene expression [1]	methylation at lysine 9 of histone H3 (H3K9) [2]	activity on G9a-like protein [3]	activity on G9a histone lysine methyltransferase [4]	expression of cardiac markers (Isl1, Mesp1, Tbx5, Mef2c, Gata4, Hand2) [5]
COc1cc2nc(N3CCCN(C)CC3)nc(NC3CCN(Cc4ccccc4)CC3)c2cc1OC [BIX-01294, 2-(Hexahydro-4-methyl-1H-1,4-diazepin-1-yl)-6,7-dimethoxy-N-[1-(phenylmethyl)-4-piperidinyl]-4-quinazolinamine trihydrochloride]	significant downregulation	significant downregulation	upregulation	inhibit	inhibition	inhibition	–
CC(C)(C)c1nc2c3ccc(F)cc3c3c(=O)[nH]ccc3c2[nH]1 [JAK inhibitor I, 2-(1,1-Dimethylethyl)-9-fluoro-3,6-dihydro-7H-benz[h]-imidaz[4,5-f]isoquinolin-7-one]	–	–	–	–	–	–	increases
